Measured values: patent US5821330A, “Peptide having inflammation affinity and radioactive diagnostic containing the same” (Nihon Medi-Physics Co., Ltd., priority 1993, dated 1998)
“And” between values parts separate entries of the source, which are not always exact repeats. Equal values may be shown once. Ends that are not written are not given here. Peptide text beside a SMILES is read from it. * marks the point of attachment. Acm = CC(=O)NC*

How the values were obtained:
[1] = test system: inflammation site of inflammatory model rats; assay: Imaging of inflammation sites using technetium-99m labeled peptide (turpentine oil inflammation model rats, gamma camera); type: in vivo, Sparague-Davley Rats; settings: 37-74 MBq tail vein, mean ± standard error, three rats
Protocol: An amount of 240-300 nmol of Peptide-2 obtained in EXAMPLE 2 was taken into each vial, and a volume of a 0.1M phosphate buffer solution (pH 8.0) was added thereto to adjust the whole […] Atmosphere in the vial was replaced with argon; then 180-300 nmol of dithiothreitol was added thereto, The mixture was then allowed to react for one hour at room temperature. Next, 120 nmol of stannous chloride and 740-1110 MBq of sodium pertechnetate were added. The mixture was left for one hour under gentle agitation. Peptide-2 labeled with technetium-99m was yielded. Peptide labeled had radiochemical purity not less than 90%.
Experiments were made for all the peptides those prepared in EXAMPLEs 4, 5, 6 and 7. Each of the peptides was taken, in an amount of 0.2-1.0 μmol, into a vial respectively, and a volume of a 0.1M phosphate buffer solution (pH 8.0) was added thereto to adjust the whole volume to 500 μl. Atmosphere in the respective vial was replaced with argon. To each vial, 500 μl of 1.5-2.2 GBq/ml glucoheptanate labeled with technetium-99m yielded in EXAMPLE 16 was added and quickly agitated. Thereafter, the mixture was allowed to react for 20 minutes in a boiling water bath. Labeling percentage of all the experimented peptides after cooling was 90-95% according to TLC.
(§1) To the right femoral part of Sparague-Davley Rats weighing about 220 g, 100 μl of turpentine oil was subcutaneously administered. After 24 hours, when inflammation was clearly observed, Ravonal anesthesia was applied; then, Peptide-1-DTPA-indium-111 and Peptide-3-Sulfo-SMCC-CHI-DTPA-indium-111 obtained in EXAMPLE 14 were respectively administered in an amount of 3.7 MBq-7.4 MBq to the respective tail vein. Images were obtained with gamma camera one, three, and six hours later. A site of interest was set on the image, where the ratio ([T]/[B] ratio) of total counts for the inflammation site [T] to total counts for the corresponding normal site of the opposite leg [B] was determined. The [T]/[B] ratio, one hour after the administration, was 2.63 for Peptide-1-DTPA-indium-111 and 2.09 for Peptide-3-DTPA-indium-111, whereby the focal site was evidently imaged.
After Ravonal anesthesia was applied to the model rats described in EXAMPLE 18, 37-74 MBq of technetium-99m labeled Peptide-2 obtained in EXAMPLE 15, Peptide-4, Peptide-5, Peptide-6 and Peptide-7 obtained in EXAMPLE 17 were each administered to the respective tail vein. Images were obtained with gamma camera 30 minutes and one, three, and six hours later respectively. A site of interest was set on the image and the [T]/[B] ratio was determined. The [T]/[B] ratio, one hour after the administration, was 3.35 for Peptide-2, 4.98 for Peptide-6, 3.36 for Peptide-7, 4.27 for Peptide-4 and 4.41 for Peptide-5 whereby the focal site was evidently imaged.

[2] = test system: focal region of model rats with infectious disease (Staphylococcus aureus); assay: Imaging of rat model with infectious disease (Staphylococcus aureus) using technetium-99m labeled peptide; type: in vivo, Sparague-Davely Rats; settings: 37-74 MBq tail vein, mean ± standard error
Protocol: In 1.0 mL of physiological saline, 10^8 of viable microbe cells of Staphylococcus aureus were suspended. An aliquot of 100 μl was administered intramuscularly to the right femoral region of Sparague-Davely Rats weighing about 220 g. After 24 hours, Ravonal anesthesia was applied to the model rats that had clearly evident inflammation; then, 37-74 MBq of technetium-99m labeled Peptide-6 obtained in […] was administered to the tail vein. Images were obtained with gamma camera one, three, and six hours later respectively. A site of interest was set on the image, and the [T]/[B] ratio was determined.

[3] = Safety of the peptides: bolus tail vein administration to rat, observation until five days, dissection; type: in vivo; settings: for abnormality in tissue checked with the naked eye (hemostatis, pigmentation, discoloration): dissection five days after 8.3 μg per 1.0 g of rat; for abnormality in tissue checked with the naked eye (hemostatis, pigmentation, discoloration) / extreme change in weight, i.e., weight gain or loss: tail vein; for symptoms such as slobber, vomiting, ocular proptosis, and behavioral abnormality: just after bolus tail vein administration, 8.3 μg per 1.0 g of rat; for extreme change in weight, i.e., weight gain or loss: until five days after 8.3 μg per 1.0 g of rat
Protocol: Assuming that clinical dosage to human is 1.0 mg/60 kg, bolus administration of Peptide-1, Peptide 4 and Peptide-5 in an amount of 8.3 μg per 1.0 g of rat and physiological saline as control were made respectively to the tail vein of the rat. Immediately after the administration, behavior of the rat was observed. The observation was continued until five days later; zero minute, ten minutes, three hours, six hours, one day, two days, three days, four days, and five days later. Just after the peptide administration, symptoms such as slobber, vomiting, ocular proptosis, and behavioral abnormality were not observed. Furthermore, extreme change in weight, i.e., weight gain or loss was not observed until five days later. After weighing five days later, the rats were dissected. Abnormality in tissue was checked with the naked eye; abnormality in any tissue was not noted such as hemostatis, pigmentation, or discoloration. These gave estimation that more than 1,000 times administration of the assumed clinical dosage would be safe.

[4] = test system: inflammation site of inflammation model rats; assay: Imaging of inflammation sites using indium-111 labeled peptide (turpentine oil inflammation model rats, gamma camera); type: in vivo, Sparague-Davley Rats; settings: 3.7-7.4 MBq tail vein, mean ± standard error, three rats
Protocol: Peptide-1-DTPA obtained in EXAMPLE 8, in an amount of 100 through 200 nmol was adjusted to pH 5.7 in a 0.1M citrate buffer solution, and then 37 to 74 MBq of indium (^111 In) chloride was added thereto. After agitation, the solution was left as such for 15 minutes. A part of the solution was taken and checked for the labeling percentage by electrophoresis. The radiochemical purity of the target compound was 98%. Peptide-3-Sulfo-SMCC-CHI-DTPA obtained in EXAMPLE 10 was also labeled with In-111 in the same way as above, and the radiochemical purity of the target compound was 90%.
as §1

[5] = assumed clinical dosage to human 1.0 mg/60 kg, estimate from rat observation

Molecule	[T]/[B] ratio of Tc-99m labeled peptide in inflammatory model rats ([1]; 1 hr. after administration)	[T]/[B] ratio of Tc-99m labeled peptide in inflammatory model rats ([1]; 3 hrs. after administration)	[T]/[B] ratio of Tc-99m labeled peptide in inflammatory model rats ([1]; 6 hrs. after administration)	abnormality in tissue checked with the naked eye (hemostatis, pigmentation, discoloration) [3]	symptoms such as slobber, vomiting, ocular proptosis, and behavioral abnormality [3]	extreme change in weight, i.e., weight gain or loss [3]	further results
(PELLGGPSV)×4 in parallel (K)×2 in parallel (KGGC(Acm)GC(Acm)) (PELLGGPSVPELLGGPSVPELLGGPSVPELLGGPSVKKKGGC(Acm)GC(Acm); also: branched Lys scaffold carrying four PELLGGPSV arms) [Peptide-6]	4.98 and 4.98 ± 0.23	4.61 ± 0.49	3.20 ± 0.39				[T]/[B] ratio of Tc-99m labeled peptide in model rats with infectious disease ([2]; 1 hr. after administration, S. aureus intramuscular, right femoral region): 1.92 and 1.92 ± 0.10; [T]/[B] ratio of Tc-99m labeled peptide in model rats with infectious disease ([2]; 3 hrs. after administration, S. aureus model): 1.58 ± 0.05; [T]/[B] ratio of Tc-99m labeled peptide in model rats with infectious disease ([2]; 6 hrs. after administration, S. aureus model): 1.52 ± 0.17
C(Acm)GC(Acm)GGKTKPREQQYNSTYRVV (also: technetium-99m label) [Peptide-5]	4.41 and 4.41 ± 0.62	3.85 ± 0.63		not noted	not observed	not observed	[T]/[B] ratio of Tc-99m labeled peptide in inflammatory model rats ([1]; 30 mins after administration): 2.61 ± 0.08; estimated safe administration relative to the assumed clinical dosage [3, 5]: more than 1,000 times
CGCGGLLGGPSV (cysteine pairing not given here; also: technetium-99m label) [Peptide-2]	3.35 and 3.35 ± 0.33	2.78 ± 0.23	2.82 ± 0.17				
C(Acm)GC(Acm)GG[(PELLGGPSV)×3 repeats in tandem]A (C(Acm)GC(Acm)GGPELLGGPSVPELLGGPSVPELLGGPSVA; also: technetium-99m label) [Peptide-7]	3.36 and 3.36 ± 0.31	2.18 ± 0.39	2.26 ± 0.20				
CC(C)C[C@H](NC(=O)[C@H](CC(C)C)NC(=O)[C@H](CCC(=O)O)NC(=O)[C@@H]1CCCN1C(=O)CNC(=O)CNC(=O)[C@@H](N)CCCCN)C(=O)NCC(=O)NCC(=O)N1CCC[C@H]1C(=O)N[C@@H](CO)C(=O)N[C@H](C(=O)O)C(C)C [Peptide-1, KGGPELLGGPSV] (H-KGGPELLGGPSV-OH)				not noted	not observed	not observed	estimated safe administration relative to the assumed clinical dosage ([3]; rat, in vivo): more than 1,000 times
C(Acm) GC(Acm)GGGKEYKAKVSNKALPAPIEKTISK (C(Acm)GC(Acm)GGGKEYKAKVSNKALPAPIEKTISK; also: technetium-99m label) [Peptide-4]	4.27 and 4.27 ± 0.26	3.10 ± 0.20		not noted	not observed	not observed	[T]/[B] ratio of Tc-99m labeled peptide in inflammatory model rats ([1]; 30 mins after administration): 2.47 ± 0.17; estimated safe administration relative to the assumed clinical dosage [3, 5]: more than 1,000 times
CC(C)C[C@H](NC(=O)[C@@H](N)CC(C)C)C(=O)NCC(=O)NCC(=O)N1CCC[C@H]1C(=O)N[C@@H](CO)C(=O)N[C@H](C(=O)N[C@@H](CS)C(=O)O)C(C)C [Peptide-3, LLGGPSVC] (H-LLGGPSVC-OH)							[T]/[B] ratio of In-111 labeled peptides in inflammation model rats ([4]; 1 hr. after administration, inflammation site vs opposite normal leg): 2.09 ± 0.18; [T]/[B] ratio of In-111 labeled peptides in inflammation model rats ([4]; 3 hrs. after administration): 2.46 ± 0.29; [T]/[B] ratio of In-111 labeled peptides in inflammation model rats ([4]; 6 hrs. after administration): 2.78 ± 0.15
